In patent US12024571B2, “Anti-erythropoietin receptor peptide” (Epo-Med Inc., priority 2018, dated 2024):
Bridge positions count the residues as written; N and C are the ends. Square brackets hold non-standard residues; d marks the D form. Peptide text beside a SMILES is read from it. * marks the point of attachment. Ala(benzothiazol-2-yl) = N[C@@H](Cc1nc2ccccc2s1)C(=O)O; Phe(3,4-F2) = N[C@@H](Cc1ccc(F)c(F)c1)C(=O)O; Phe(3-Cl) = N[C@@H](Cc1cccc(Cl)c1)C(=O)O; Phe(4-Cl) = N[C@@H](Cc1ccc(Cl)cc1)C(=O)O; Phe(4-F) = N[C@@H](Cc1ccc(F)cc1)C(=O)O; Propionyl = CCC(=O)*

How the values were obtained:
[1] = test system: human pancreatic cancer derived AsPC-1 cells; test: AsPC-1 cell proliferation, WST assay; assay type: cell-based; settings: 72 hours
Method: Human pancreatic cancer derived AsPC-1 cells (ECACC, 96020930) were passaged (twice/week) under the condition of 37° C. and 5% CO2-95% air using an RPMI-1640 medium (Sigma, R8758-500 ML) comprising 10% fetal bovine serum (biowest, S182H-500) and 1 mM sodium pyruvate (gibco, 11360-070). The AsPC-1 cells were collected from a culture dish using 0.05% trypsin-0.02% EDTA solution (Sigma, T4174-100 ML). The cells were suspended in the medium and then seeded on a 96-well microplate (3×10^3/0.05 mL/well). After culturing the cells overnight, a medium comprising the test compounds (total of 43 compounds, final concentration of 150 μM) was added (0.05 mL/well, 3 wells/test compound). After 72 hours, the cell proliferation capability for each well was measured by a WST assay (DOJINDO LABORATORIES, Cell Counting Kit-8), and the inhibition ratio for each test compound against the control (test compound-free well) was calculated.
A WST assay is a viable cell count measuring method, which uses water-soluble tetrazolium salt WST-8 as a coloring reagent and uses water-soluble formazan generated by reduction of WST-8 as an indicator of viable cell count. NADH produced by a dehydrogenase in a cell converts WST-8 to water-soluble formazan. Since the generated water-soluble formazan has the maximum absorbance at about 450 nm, the viable cell count is indicated by measuring the absorbance at such a wavelength region.
Human pancreatic cancer derived AsPC-1 cells (ECACC, 96020930) were cultured, collected, and seeded on a 96-well microplate (3×10^3/0.05 mL/well) in the same manner as Example 3. After culturing the cells overnight, a medium comprising the test compounds (10, 30, or 100 μM) was added (0.05 mL/well, 3 wells/test compound). After 72 hours, the cell proliferation capability for each well was measured by a WST assay (DOJINDO LABORATORIES, Cell Counting Kit-8), and the inhibition ratio for each test compound against the control (test compound-free well) was computed.

[2] = test system: human T cell leukemia derived ATL-2 cells; test: ATL-2 cell proliferation, WST assay; assay type: cell-based; settings: 150 μM, 72 hours, FIG. 39
Method: Human T cell leukemia derived ATL-2 cells (provided by Dr. Maeda at the Kyoto University) were passaged (twice/week) under the condition of 37° C. and 5% CO2-95% air using an RPMI-1640 medium (Sigma, R8758-500 mL) comprising 10% fetal bovine serum (biowest, S182H-500). The ATL-2 cells were collected from a culture flask. The cells were suspended in the medium and then seeded on a 96-well microplate (3×10^3/0.05 mL/well). After culturing the cells overnight, a medium comprising the test compounds (total of 32 compounds, final concentration of 150 μM) was added (0.05 mL/well, 3 wells/test compound). After 72 hours, the cell proliferation capability for each well was measured by a WST assay (DOJINDO LABORATORIES, Cell Counting Kit-8), and the inhibition ratio for each test compound against the control (test compound-free well) was calculated.

[3] = test system: human pancreatic cancer derived AsPC-1 cells; test: Tumor growth in AsPC-1 cancer-bearing nude mouse model; assay type: in vivo; settings: intraperitoneal, 3 times daily, total 0.2 mg/day, 3 times a week for 2 weeks; FIG. 40
Method: Human pancreatic cancer derived AsPC-1 cells (ECACC, 96020930) were cultured and collected in the same manner as Example 3, suspended in the RPMI-1640 medium described above comprising 10% Matrigel (BD Bioscience, 354234), and transplanted subcutaneously to the right side on the back of a 6-week-old male nude mouse (SLC, BALB/cSlc-nu/nu) (5×10^6/0.1 mL/mouse). The length (L) and width (W) of the tumor were measured using a digital caliper. When the tumor volume (V) calculated from the formula V=L×W^2/2 reached about 150 to 200 mm^3, the mice were separated into groups and administered with test compounds (total of 8 compounds including GT-11263). Saline was administered to a control group. The compounds were administered intraperitoneally (0.1 mL/mouse, 3 to 5 mice/test compound) 3 times daily (one hour interval, a total of 0.2 mg/day), 3 times a week for 2 weeks. The tumor size and body weight were measured twice a week to monitor the status of tumor growth and the effect of the administration of test compounds.
In the same manner as Example 5, human pancreatic cancer derived AsPC-1 cells were transplanted subcutaneously to the right side on the back of a 6-week-old male nude mouse (SLC, BALB/cSlc-nu/nu) (5×10^6/0.1 mL/mouse). The length (L) and width (W) of the tumor were measured using a digital caliper. When the tumor volume (V) calculated from the formula V=L×W^2/2 reached about 150 to 200 mm^3, the mice were separated into groups and administered with test compounds (GT-11269, GT-11309, and GT-11350). Saline was administered to a control group. The compounds were administered intraperitoneally (0.1 mL/mouse, 5 mice/test compound) 3 times daily (one hour interval, a total of 0.5 mg/day), twice a week for 4 weeks. The tumor size and body weight were measured twice a week to monitor the effect of the administration of test compounds (FIG. 45).
(§1) In the same manner as Example 5, human pancreatic cancer derived AsPC-1 cells were transplanted subcutaneously to the right side on the back of a 6-week-old male nude mouse (SLC, BALB/cSlc-nu/nu), and when the tumor volume (V) reached about 150 to 200 mm^3, the mice were separated into groups and administered with test compounds (GT-11350). Saline was administered to a control group. The compounds were administered intraperitoneally (0.1 mL/mouse) 3 times daily (one hour interval, a total of 0.1 mg, 0.2 mg, or 0.4 mg/day), twice a week for 4 weeks. The tumor size and body weight were measured twice a week to monitor the effect of the dose of test compounds (FIG. 49).
as §1, with “of” for “of 0.1 mg,”, “mg/day)” for “mg,”, “once daily (0.2” for “0.4”, “administration” for “dose”, “compounds.” for “compounds (FIG. 49).”

[4] = test system: human liver cancer derived HepG2 cells; test: Lethal effect of synthetic peptides on HepG2 cells (Trypan blue positive cell count); assay type: cell-based; settings: 120, 60, 30 or 15 μM, 24 hours; FIGS. 34 to 37
[5] = test system: human liver cancer HepG2 cells; test: Granule leakage of HepG2 cells exposed to peptides, under a microscope; assay type: cell-based; settings: HepG2 cells exposed to peptide
From the text: The peptides synthesized above were exposed to human liver cancer HepG2 cells and the leakage of granules under a microscope was studied. […] In view of the above, peptides GT-11258, GT-11261, and GT-11274 were expected to have a relatively strong activity.

Row | Compound | HepG2 cell killing effect compared with YS12 (Trypan blue positive cells per 1 mm^2) [4] | leakage of granules under a microscope [5] | other results
1 | CSCC[C@@H]1NC(=O)[C@@H]2CCCN2C(=O)CNC(=O)[C@H](Cc2ccccc2)NC(=O)[C@H](Cc2c[nH]cn2)NC(=O)[C@@H](NC(=O)[C@H](CO)NC(C)=O)CSSC[C@@H](C(=O)N[C@@H](CCCCN)C(N)=O)NC(=O)[C@H](C(C)C)NC(=O)[C@H](Cc2c[nH]c3ccccc23)NC(=O)[C@H]([C@@H](C)O)NC1=O [GT-11269, Ac-SCHFGPMTWVCK-NH2] (Ac-SCHFGPMTWVCK-NH2; disulfide 2-11) |  |  | proliferation inhibiting action against AsPC-1 cells (inhibition ratio against control) ([1]; 10, 30 or 100 μM, FIG. 43): potent proliferation inhibiting action; proliferation inhibiting action on ATL-2 cells (inhibition ratio against control) [2]: potent proliferation inhibiting action; antitumor effect (relative tumor volume) [3]: potent and had an early manifestation of effect
2 | (propionyl)-SCHFGPLTWVCK-NH2 (Propionyl-SCHFGPLTWVCK-NH2; disulfide 2-11 (inferred)) [GT-11257] |  |  | proliferation inhibiting action on AsPC-1 cells (inhibition ratio against control) ([1]; 150 μM, FIG. 38): potent proliferation inhibiting action
3 | Ac-SCH(3,4-difluoro-Phe)GPLT(2-benzothiazolylalanine)VCK-NH2 (Ac-SCH[Phe(3,4-F2)]GPLT[Ala(benzothiazol-2-yl)]VCK-NH2; disulfide 2-11 (inferred)) [GT-11305] | equivalent or greater than that of YS12 |  | 
4 | Ac-SCH(3,4-difluoro-Phe)GPLT(2-quinolylalanine)VCK-NH2 [GT-11304] | equivalent or greater than that of YS12 |  | 
5 | Ac-SCH(3,4-difluoro-Phe)GPLT(8-quinolylalanine)VCK-NH2 [GT-11303] | equivalent or greater than that of YS12 |  | 
6 | Ac-SCH(m-chloro-Phe)GPLTWVCK-NH2 (Ac-SCH[Phe(3-Cl)]GPLTWVCK-NH2; disulfide 2-11 (inferred)) [GT-11260] | equivalent or greater than that of YS12 | relatively low degree of granule leakage | 
7 | Ac-SCH(p-chloro-Phe)GPLTWVCK-NH2 (Ac-SCH[Phe(4-Cl)]GPLTWVCK-NH2; disulfide 2-11 (inferred)) [GT-11259] | equivalent or greater than that of YS12 | relatively low degree of granule leakage | 
8 | Ac-SCH(p-fluoro-Phe)GPLT(2-benzothiazolylalanine)VCK-NH2 [GT-11307] | equivalent or greater than that of YS12 |  | 
9 | Ac-SCH(p-fluoro-Phe)GPLT(2-quinolylalanine)VCK-NH2 [GT-11306] | equivalent or greater than that of YS12 |  | 
10 | Ac-SCH(p-fluoro-Phe)GPLTWVCK-NH2 (Ac-SCH[Phe(4-F)]GPLTWVCK-NH2; disulfide 2-11 (inferred)) [GT-11258] |  | significant granule leakage | 
11 | Ac-SCH(phenethylglycine)GPLTWVCK-NH2 (Ac-SCH[phenethylglycine]GPLTWVCK-NH2; disulfide 2-11 (inferred)) [GT-11263] |  |  | antitumor effect (relative tumor volume) [3]: potent antitumor effect
12 | Ac-SCHFGPATWVCK-NH2 (disulfide 2-11 (inferred)) [GT-11268] | equivalent or greater than that of YS12 |  | 
13 | Ac-SCHFGPLT(8-quinolylalanine)VCK-NH2 (Ac-SCHFGPLT[8‑quinolylalanine]VCK-NH2; disulfide 2-11 (inferred)) [GT-11274] | equivalent or greater than that of YS12 | significant granule leakage | 
14 | Ac-SCHYGPLT(2-quinolylalanine)VCK-NH2 (Ac-SCHYGPLT[2‑quinolylalanine]VCK-NH2; disulfide 2-11 (inferred)) [GT-11308] | equivalent or greater than that of YS12 |  | proliferation inhibiting action on ATL-2 cells (inhibition ratio against control) [2]: potent proliferation inhibiting action
15 | Ac-SCHYGPLTWVCK-NH2 (disulfide 2-11 (inferred)) [GT-11261] | equivalent or greater than that of YS12 | significant granule leakage | 
16 | Ac-kcvwtlGGfhcs-NH2 (Ac-[dK][dC][dV][dW][dT][dL]GG[dF][dH][dC][dS]-NH2; disulfide 2-11 (inferred)) [GT-11280] | equivalent or greater than that of YS12 |  | 
